{
  "source": "paper PMC7126094",
  "about": "(Bioorganic & Medicinal Chemistry Letters, 2019)",
  "key": {"[1]": {"test_system": "VERO: African green monkey kidney cell line"}, "[2]": {"test_system": "NIH 3T3: mouse embryonic fibroblast cell line"}, "[3]": {"test_system": "CHO-K1: Chinese hamster ovary cell line"}, "[4]": {"details": "mouse, microsomes"}, "hERG": {"molecular_target": "hERG (Homo sapiens, UniProt Q12809)", "sequence (Q12809 whole entry)": "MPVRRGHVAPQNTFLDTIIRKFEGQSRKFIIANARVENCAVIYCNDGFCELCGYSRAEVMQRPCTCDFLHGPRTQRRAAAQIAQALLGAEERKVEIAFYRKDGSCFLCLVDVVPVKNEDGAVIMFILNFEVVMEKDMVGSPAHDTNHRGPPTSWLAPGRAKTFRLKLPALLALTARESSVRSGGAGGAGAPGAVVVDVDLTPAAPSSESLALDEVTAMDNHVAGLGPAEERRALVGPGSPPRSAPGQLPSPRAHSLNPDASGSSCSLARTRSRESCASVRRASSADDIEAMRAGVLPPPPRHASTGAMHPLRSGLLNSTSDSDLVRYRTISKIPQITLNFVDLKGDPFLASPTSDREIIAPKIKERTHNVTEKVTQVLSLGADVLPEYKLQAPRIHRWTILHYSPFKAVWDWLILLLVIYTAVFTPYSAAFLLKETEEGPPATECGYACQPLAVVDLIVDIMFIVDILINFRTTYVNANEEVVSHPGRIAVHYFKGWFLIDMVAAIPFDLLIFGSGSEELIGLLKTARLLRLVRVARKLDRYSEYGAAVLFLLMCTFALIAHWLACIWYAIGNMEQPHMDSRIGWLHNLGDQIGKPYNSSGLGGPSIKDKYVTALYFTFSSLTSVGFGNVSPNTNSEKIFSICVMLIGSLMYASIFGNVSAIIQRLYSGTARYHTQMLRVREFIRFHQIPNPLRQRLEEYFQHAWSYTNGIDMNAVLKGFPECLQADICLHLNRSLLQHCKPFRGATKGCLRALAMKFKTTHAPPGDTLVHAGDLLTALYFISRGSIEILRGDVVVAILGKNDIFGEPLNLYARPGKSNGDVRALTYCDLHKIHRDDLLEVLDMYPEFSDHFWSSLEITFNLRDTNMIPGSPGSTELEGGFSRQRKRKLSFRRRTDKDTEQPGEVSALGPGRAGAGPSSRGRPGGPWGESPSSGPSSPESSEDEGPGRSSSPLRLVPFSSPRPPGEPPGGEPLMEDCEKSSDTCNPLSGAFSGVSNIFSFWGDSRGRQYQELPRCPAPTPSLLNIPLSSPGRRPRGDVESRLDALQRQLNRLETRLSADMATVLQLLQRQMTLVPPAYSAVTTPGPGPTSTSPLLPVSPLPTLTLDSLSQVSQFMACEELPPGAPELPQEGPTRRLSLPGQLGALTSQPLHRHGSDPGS", "test": "hERG binding assay"}, "[5]": {"test_system": "HFL-1: human embryonic lung cell line"}, "[6]": {"test_system": "L929: mouse fibroblast cell line"}, "in vitro": {"test": "in vitro", "details": "African green monkey"}, "[7]": {"details": "rat, microsomes"}, "[8]": {"details": "human, microsomes"}},
  "note": "“Also recorded” adds a separate entry of the source. Read-outs that look alike come from different tables or passages of the source.",
  "data": [
    {"compound": "5,6,8-Tichloro-2-((2,4-difluorophenyl)amino)-3-isobutyrylquinolin-4(1H)-one [Compound 6y]", "values": [
      {"measurement": "IC50", "setting": "MERS-CoV; read-out: IC50 (MERS-CoV inhibitory activity)", "result": "0.129 ± 0.026", "unit": "µM"}
    ]},
    {"compound": "CC(=O)c1c(NC(C)C)[nH]c2c(C(C)C)cccc2c1=O", "note": "[Compound 6a, 3-Aetyl-8-isopropyl-2-(isopropylamino)quinolin-4(1H)-one]", "values": [
      {"measurement": "inhibitory effect on MERS-CoV (in words)", "setting": "MERS-CoV", "result": "no inhibitory effects"}
    ]},
    {"compound": "CC(=O)c1c(NC(C)C)[nH]c2c(C)cc(C)cc2c1=O", "note": "[Compound 6b, 3-Aetyl-2-(isopropylamino)-6,8-dimethylquinolin-4(1H)-one]", "values": [
      {"measurement": "inhibitory effect on MERS-CoV (in words)", "setting": "MERS-CoV", "result": "no inhibitory effects"}
    ]},
    {"compound": "CC(C)Nc1[nH]c2c(C(F)(F)F)cc(Cl)cc2c(=O)c1C(=O)c1ccccc1", "note": "[Compound 6c, 3-Bnzoyl-6-chloro-2-(isopropylamino)-8-(trifluoromethyl)quinolin-4(1H)-one]", "values": [
      {"measurement": "inhibitory effect on MERS-CoV (in words)", "setting": "MERS-CoV", "result": "detrimental for inhibitory effect; also recorded: completely abolished activity"}
    ]},
    {"compound": "CC(=O)c1c(N2CCCCC2)[nH]c2c(F)cc(F)cc2c1=O", "note": "[Compound 6i, 3-Acetyl-6,8-difluoro-2-(piperidin-1-yl)quinolin-4(1H)-one]", "values": [
      {"measurement": "inhibitory effect on MERS-CoV (in words)", "setting": "MERS-CoV", "result": "no inhibitory effect"}
    ]},
    {"compound": "CC(=O)c1c(N2CCOCC2)[nH]c2c(F)cc(F)cc2c1=O", "note": "[Compound 6j, 3-Acetyl-6,8-difluoro-2-morpholinoquinolin-4(1H)-one]", "values": [
      {"measurement": "inhibitory effect on MERS-CoV (in words)", "setting": "MERS-CoV", "result": "no inhibitory effect"}
    ]},
    {"compound": "CCCCNc1[nH]c2c(F)cc(F)cc2c(=O)c1C(C)=O", "note": "[Compound 6k, 3-Acetyl-2-(butylamino)-6,8-difluoroquinolin-4(1H)-one]", "values": [
      {"measurement": "inhibitory effect on MERS-CoV (in words)", "setting": "MERS-CoV", "result": "no inhibitory effect"}
    ]},
    {"compound": "COc1cccc(Nc2[nH]c3c(F)cc(F)cc3c(=O)c2C(C)=O)c1", "note": "[Compound 6p, 3-Acetyl-6,8-difluoro-2-((3-methoxyphenyl)amino)quinolin-4(1H)-one]", "values": [
      {"measurement": "inhibitory effect on MERS-CoV (in words)", "setting": "MERS-CoV", "result": "no inhibitory effects"}
    ]},
    {"compound": "COc1ccc(Nc2[nH]c3c(F)cc(F)cc3c(=O)c2C(C)=O)cc1", "note": "[Compound 6q, 3-Acetyl-6,8-difluoro-2-((4-methoxyphenyl)amino)quinolin-4(1H)-one]", "values": [
      {"measurement": "inhibitory effect on MERS-CoV (in words)", "setting": "MERS-CoV", "result": "no inhibitory effects"}
    ]},
    {"compound": "CC(C)C(=O)c1c(Nc2ccc(F)c(F)c2F)[nH]c2c(F)cc(F)cc2c1=O", "note": "[Compound 6u, 6,8-Difluoro-3-isobutyryl-2-((2,3,4-trifluorophenyl)amino)quinolin-4(1H)-one]", "values": [
      {"measurement": "cytotoxicity (in words)", "setting": "[1]", "result": "no cytotoxicity"},
      {"measurement": "cytotoxicity (in words)", "setting": "[2]", "result": "no cytotoxicity"},
      {"measurement": "cytotoxicity (in words)", "setting": "[3]", "result": "no cytotoxicity"},
      {"measurement": "metabolic stability (in words)", "setting": "[4]", "result": "good metabolic stability"},
      {"measurement": "hERG binding affinity (in words)", "setting": "hERG", "result": "low hERG binding affinity"},
      {"measurement": "cytotoxicity (in words)", "setting": "[5]", "result": "no cytotoxicity"},
      {"measurement": "cytotoxicity (in words)", "setting": "[6]", "result": "no cytotoxicity"},
      {"measurement": "IC50", "setting": "in vitro", "result": 86.1, "unit": "µM"},
      {"measurement": "metabolic stability (in words)", "setting": "[7]", "result": "good metabolic stability"},
      {"measurement": "metabolic stability (in words)", "setting": "[8]", "result": "good metabolic stability"}
    ]}
  ]
}
